These results are taken from patent US8669232B2, “Flavonol compounds, a bioactive extract/fraction from Ulmus wallichiana and its compounds for prevention for treatment of osteo-health related disorders” (Council of Scientific & Industrial Research, priority 2008, dated 2014).

The test system of test [1] is Bone marrow cells (BMCs). Kind of test: In vitro mineralization from mouse bone marrow. The format is cell-based, balb/c mice. Particulars: 1 nM and 100 nM, 21 days. An excerpt:
Adult balb/c mice were used in this study. Bone marrow cells (BMCs) were harvested from the femurs and tibias of the animals, as described elsewhere (Maniatopoulos et al. Cell Tissue Res 1988:254:317-30.; Ishaug et al., J Biomed Mater Res 1997; 36:17-28.). Briefly, bones were aseptically excised from the hind limbs of the mice following ether euthanasia. The soft tissue was removed, and the proximal end of the femur and distal end of the tibia were clipped off using sterile scissors, a hole was created in the knee joint end of each bone with an needle, and the marrow was flushed from the shaft with control medium (CM) which consisted of α-MEM supplemented with 10% fetal calf serum, 100 U/ml penicillin, 100 U/ml streptomycin (Sigma, Chemical Co., St. Louis, Mo., USA). The cells were suspended in this medium, and the cell suspensions from all bones were combined in a centrifuge tube. The suspension was spun down at 800 rpm for 5 min. Cells were counted by using a haemocytometer. The supernatant was aspirated, and the pellet was re-suspended in fresh CM and then seeded into 12-well plates. 200000 cells/well were cultured in 12-well plates and in a humidified atmosphere, with 5% CO2, at 37° C. in the same medium supplemented with 10 mM-β-glycerophosphate, 50 μg/ml L-ascorbic acid and 10^−8M dexamethasone with different concentration of the test compound. This medium was replaced every other day (John et al. Trends. Biomater. Artif. Organs 2002:16(1):28-33.; Connolly. Clin Orthop 1995:313: 8-18.; Gebhart and Lane. Acta Orthop Belg 1991:57(2):130-43.; Gurpinar et al. J Biomater Appl 2003; 18(1):25-33; Lan and Wang, Blood Substitutes. Biotechnol 2003; 31(1):59-68.). Treatments K012, K058, K068 and K0100 at 1 nM and 100 nM concentration were given for 21 days and after completion of the treatment samples were rinsed with PBS followed by fixation (4% HCHO for […]). Samples were then rinsed with nanopure water and stained for 10 min with 40 mM AR-S, pH 4.2, at room temperature. Photomicrographs of the stained wells were taken. Subsequently, alizarin red-S stain was extracted using 10% (w/v) CPC in […] sodium phosphate, pH 7.0, for […] at room temperature, and the resulting solutions were read on a Microplate reader with a test wavelength of 540 nm against a reference wavelength of 620 nm.

Test [2] relates to calvarial osteoblasts. The test can be described thus: Alkaline phosphatase activity assay in calvarial osteoblasts. It counts as cell-based, neonatal Sprague-Dawley rats. On the procedure:
(§1) Neonatal rat calvarial cell cultures are prepared as described previously (Chattopadhyay et al., Endocrinology 145:3451-62, 2004) using slight modification. Briefly, for calvarial osteoblast cultures, frontal and parietal bones from neonatal Sprague-Dawley rats (1-3 day old) were digested in 0.1% collagenase/0.1% dispase in α-MEM to obtain 5 sequential digests. The second through fifth digests are combined and grown to confluence at 37° C. and 5% CO2 in air in α-MEM, supplemented with 10% fetal bovine serum (FBS), 2 mM glutamine, 100 U/ml penicillin-streptomycin, non-essential amino acid solution and sodium pyruvate.
For alkaline phosphatase (ALP) assay, osteoblasts were plated in 96-well (2000 cells/well) plates in regular growth medium. Twenty-four hours later, when the cells formed a confluent monolayer, medium was replaced with α-MEM medium supplemented with 10% FBS, 10 mM β-glycerophosphate and 50 μg/ml ascorbic acid. Treatment was given with varying concentration of the test compound K012, K058, K068 and K100 at 1 nM and 100 nM concentration. Forty-eight hours after induction, ALP activity of the osteoblasts was determined as described by Akiyama et al (Exp Cell Res 235:362-369, 1997) with slight modifications. Briefly, cells were washed once with PBS and ALP activity was measured by adding ALP buffer (1 M diethanolamine, 0.5 mM MgCl2, 1 mg/ml PNPP, pH 9.0), incubating in 37° C., and absorbance (405 nm) was measured using a microplate spectrophotometer. Statistical significance was determined by paired two-tailed Student's t-tests.

Test [3] relates to calvarial osteoblasts. The test can be described thus: In vitro mineralization of calvarial osteoblasts (alizarin red-S, von kossa). The format is cell-based, neonatal Sprague-Dawley rats. Particulars: for Von kossa staining (mineralized nodules) compared with controls (vehicle): 21 days culture. The protocol:
as §1
Ability of cells to produce mineralized matrix is important with regard to development of materials for bone regeneration. Mineralization of extracellular matrix by osteoblasts was determined using alizarin red-S (AR-S) assay combined with cetylpyridinium chloride (CPC) extraction. (Stanford et al, J. Biol. Chem. 270:9420-9428; 1995.) Alizarin red is a dye that binds selectively to nascent calcium salts and is widely used for calcium mineral histochemistry. Cells were seeded onto a six well plate containing 10000 cells/well in culture medium supplemented with 10 mM β-glycerophosphate and 50 μg/ml ascorbic acid with test compounds K012, K058, K068 and K0100 at 1 nM and 100 nM concentration. Treatment was given for 21 days and after completion of the treatment samples were rinsed with PBS followed by fixation (4% HCHO for 20 min). Photomicrographs of the stained wells were taken. Subsequently, alizarin red-S stain was extracted using 10% (w/v) cetylpyridinium chloride (CPC) in […] sodium phosphate, pH 7.0, for 15 min at room temperature, and the resulting solutions were read on a Microplate reader with a test wavelength of 540 nm against a reference wavelength of 620 nm. Mineralization nodules were also seen by Von kossa staining procedure (A. M. Chou et al. Materials Science and Engineering C 20 (2002) 77-83.) After 21 days culture, cells in tissue culture wells were washed with PBS and immersed in 5% (w/v) silver nitrate solution for 45 min. After rinsing with distilled water, they were fixed in 5% (w/v) sodium bicarbonate formalin for 8 min. Finally, they were immersed in 5% (w/v) sodium thiosulphate solution for 5 min and washed thoroughly with water for 15 min and photomicrographs were taken.

Test [4] has as its system 3T3-L1 preadipocytes. The test can be described thus: Semi-quantitative RT-PCR of adipogenic genes. The conditions noted are these: 10^−7 & 10^−9M, 8 d. It counts as cell-based, murine. On the procedure: RT-PCR was performed for assessing the expression of PPAR-γ (peroxisome proliferator-activated receptor) and adiponectin. The house keeping gene GAPDH was used as the internal control in this study. 3T3-L1 preadipocytes were cultured under differentiation condition to form adipocytes in the presence of K068 and K100 at 10^−6, 10^−7 and 10^−9 M concentrations for 8 days. Following the culture, cellular RNA was extracted and RT-PCR performed using a kit (Fermentas) according to manufacturer's instructions.

Test [5] relates to 3T3-L1 preadipocyte cells. The test can be described thus: In vitro adipogenesis (oil red-O). It counts as cell-based, murine. The conditions noted are these: for adipocyte differentiation (oil red-O): 1 μM, 100 nM and 1 nm, 8 days. On the procedure:
3T3-L1 preadipocyte cells were cultured to confluency. Two days after the cells reached confluency was considered as day 0. At day 0, cells were treated with the induction media [10% calf serum/DMEM containing 1 μg/ml insulin, 1 μM dexamethasone and 500 μM isobutylmethylxanthine (IBMX). Two days after induction medium treatment (day 2), the cells were treated with insulin [10% calf serum/DMEM containing 1 μg/ml insulin. Full differentiation was usually achieved after 8 days from day 0. To test the effect of the test compound on the differentiation of 3T3-L1 preadipocytes to adipocytes, the test compounds K068 and K100 at 1 μM, 100 nM and 1 nm concentrations were used in different concentrations throughout differentiation (for 8 days starting from day 0). For assessment of adipogenesis the differentiated cells were fixed in 4% paraformaldehyde w/v for 20 min, washed with PBS and stained with 0.34% Oil Red 0 in 60% isopropanol for 15 minutes. Then it was washed with PBS thrice and stain was extracted with 80% isopropanol by keeping it at room temperature for 30 minutes on an orbital shaker. OD of the extracted dye was taken at 520 nm.

Test [6] has as its system Ishikawa cells. Kind of test: In vitro estrogenicity / anti-estrogenicity (ALP induction). It counts as cell-based, human. The conditions noted are these: 10^−11 to 10^−6 M, 72 h. On the procedure:
The expression of alkaline phosphatase is induced in Ishikawa cells in response to estrogen or estrogen like substances (Littlefield et al, Endocrinology. 1990 December; 127(6):2757-62.). Ishikawa cells were plated in 96-well flat bottomed microtiter plates at a density of 5000 cells/well and cultured in phenol red free DMEM containing 10% charcoal treated FCS. After 24 h of plating, cells were serum-starved for 12 h. Thereafter, for testing estrogenicity of compounds, the cells were treated with different concentrations (10^−6 to 10^−11 M) of pure compounds K058 and K012. Same concentrations of Raloxifene were also used for comparison. Estrogen concentration of 10^−8 M was used as a positive control. Compound treatments were performed for 72 h at 37° C. in CO2 incubator. Experiments were repeated 4 times. For the anti-estrogenicity studies, the compounds K012 and K058 at 10^−6 to 10^−11 M were added with 10^−8 M estrogen. After 72 h of incubation, the media was removed and the plates were washed twice with PBS and dried by tapping, gently. Freeze fracture of cells was achieved by placing the plates at −70° C. for 15, min followed by bringing to room temperature. The plates were then placed on ice and 50 μl of ice cold diethanolamine solution (5 mM P-nitrophenyl phosphate (PNP) and 0.25 mM MgCl2 in 1 M diethanolamine) was added to each well. The plates were then placed at 37° C. for 30 minutes for color (yellow) development is a function of ALP activity. Absorbance was measured at 405 nm.

As for `O=C1CC(c2ccc(O)cc2)Oc2cc(O)c(C3O[C@H](CO)[C@@H](O)[C@H](O)[C@H]3O)c(O)c21` (some centres unmarked) [K068, 6-Glucopyranosyl-4′,5,7-trihydroxyflavanone], the “mineralization of bone marrow osteoblasts (alizarin red staining)” value in test [1] is listed as “stimulated”. For the same molecule, the “osteoblast differentiation (summary of in vitro effects)” value in test [2] is listed as “promoted”. In test [3], the “osteoblast mineralization (summary of in vitro effects)” value is “promoted” and the “Von kossa staining (mineralized nodules) compared with controls (vehicle)” value is given as “increased”. In test [4], the “mRNA levels of PPAR-γ” value is given as “decreased” and the “mRNA levels of adiponectin” value is “decreased”. Also, in test [5], the “anti-adipogenic activity in 3T3 L1 cell line (summary of in vitro effects)” value is reported as “have anti-adipogenic activity” and the “adipocyte differentiation (oil red-O)” value is given as “significantly inhibited”.
Regarding `O=C1c2c(cc(O)c([C@@H]3OC(CO)[C@@H](O)[C@H](O)C3O)c2O)O[C@@H](c2ccc(O)cc2)[C@@H]1O` (stereo partly drawn) [K100, (2S,3S)-(+)-4′,5,7-trihydroxydihydroflavonol-6-C-β-D-glucopyranoside], the “mineralization of bone marrow osteoblasts (alizarin red staining)” value in test [1] was “stimulated”. Further, in test [2], the “osteoblast differentiation (summary of in vitro effects)” value is recorded as “promoted”. Moreover, in test [3], the “osteoblast mineralization (summary of in vitro effects)” value is given as “promoted” and the “Von kossa staining (mineralized nodules) compared with controls (vehicle)” value is given as “increased”. Besides, in test [4], the “mRNA levels of PPAR-γ” value was “decreased” and the “mRNA levels of adiponectin” value was “decreased”. In test [5], the “anti-adipogenic activity in 3T3 L1 cell line (summary of in vitro effects)” value is listed as “have anti-adipogenic activity” and the “adipocyte differentiation (oil red-O)” value is on record as “significantly inhibited”.
In the case of `O=C(c1ccc(OCCN2CCCCC2)cc1)c1c(-c2ccc(O)cc2)sc2cc(O)ccc12` [raloxifene, reference compound], the “ALP levels (estrogenicity)” value in test [6] is recorded as “no response”.
